What was measured:
[1] = organism: Mus musculus; test: Biodistribution in ddY mouse small intestine at 4.8 MBq/0.1 mL after 90 mins by gamma counting; format: ADME, organism-based; conditions: in vivo, 1.5 h
[2] = Drug uptake in monkey cingulate cortex at 185 to 220 MBq, iv after 20 mins by PET analysis; format: ADME, organism-based, Macaca mulatta; conditions: rhesus monkey, in vivo
[3] = tested on: Lung; test: Biodistribution in ddY mouse lung at 4.8 MBq/0.1 mL after 90 mins by gamma counting; format: ADME, organism-based; conditions: in vivo, 1.5 h
[4] = Drug uptake in monkey cerebellum at 185 to 220 MBq, iv after 20 mins by PET analysis; format: ADME, organism-based, Macaca mulatta; conditions: rhesus monkey, in vivo
[5] = Drug uptake in monkey pons at 185 to 220 MBq, iv after 10 to 60 mins by PET analysis; format: ADME, organism-based, Macaca mulatta; conditions: rhesus monkey, in vivo
[6] = tested on: Brain; test: Biodistribution in ddY mouse brain at 4.8 MBq/0.1 mL after 60 mins by gamma counting; format: ADME, organism-based; conditions: in vivo, 1 h

Drug uptake [1]: 7.09 % ID/g | SUV [2]: 0.9 | Drug uptake [3]: 0.12 % ID/g | SUV [4]: 1.2 | Drug uptake [5]: Active | Drug uptake [6]: 1.04 % ID/g
Structure (SMILES): CC(C)Nc1cc(-c2csc(N(C)C(=O)c3ccc([14CH3])cc3)n2)ncn1

— ChEMBL document CHEMBL2176881, “Development of N-[4-[6-(isopropylamino)pyrimidin-4-yl]-1,3-thiazol-2-yl]-N-methyl-4-[11C]methylbenzamide for positron emission tomography imaging of metabotropic glutamate 1 receptor in monkey brain” (J Med Chem, 2012)
